Data taken from the supplement of paper PMC10307832.

Columns and labels:
Experiment in all cases: relative viability (nuclei count vs DMSO), 5 days (fraction); higher = more cells survive
[1] = compound: CN(c1ncccc1CNc1nc(Nc2ccc3c(c2)CC(=O)N3)ncc1C(F)(F)F)S(C)(=O)=O + C[C@@H](Oc1cc(-c2cnn(C3CCNCC3)c2)cnc1N)c1c(Cl)ccc(F)c1Cl [Crizotinib] (partner 1 µM)
In short: (§1)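 Lung cancer cell lines were pin-tool dosed in 1536-well plates on the day after seeding, with either a lone drug or a fixed anchor-drug dose plus five library-drug doses (not always all listed) in √10 steps. Nuclei were counted on 4× images after 5 days. Relative viability is the ratio of treated-well to vehicle-well nuclei counts, with each value a median of duplicate plates.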

[2] = compound: CN(c1ncccc1CNc1nc(Nc2ccc3c(c2)CC(=O)N3)ncc1C(F)(F)F)S(C)(=O)=O + O=C(CCCCCCC(=O)Nc1ccccc1)NO [Vorinostat] (partner 1 µM)
In short: as §1

[3] = compound: CN(c1ncccc1CNc1nc(Nc2ccc3c(c2)CC(=O)N3)ncc1C(F)(F)F)S(C)(=O)=O + CC1(C)CCC(c2ccc(Cl)cc2)=C(CN2CCN(c3ccc(C(=O)NS(=O)(=O)c4ccc(N[C@H](CCN5CCOCC5)CSc5ccccc5)c(S(=O)(=O)C(F)(F)F)c4)cc3)CC2)C1 [Navitoclax] (partner 0.5 µM)
In short: as §1

[4] = compound: CN(c1ncccc1CNc1nc(Nc2ccc3c(c2)CC(=O)N3)ncc1C(F)(F)F)S(C)(=O)=O + Cc1nc(Nc2ncc(C(=O)Nc3c(C)cccc3Cl)s2)cc(N2CCN(CCO)CC2)n1 [Dasatinib] (partner 0.075 µM)
In short: as §1

Row | Cell Line | relative viability ([1]; first compound 0.01 µM) | relative viability ([1]; first compound 0.03162 µM) | relative viability ([1]; first compound 0.1 µM) | relative viability ([1]; first compound 0.3162 µM) | relative viability ([1]; first compound 1 µM) | relative viability ([2]; first compound 0.01 µM) | relative viability ([2]; first compound 0.03162 µM) | relative viability ([2]; first compound 0.1 µM) | relative viability ([2]; first compound 0.3162 µM) | relative viability ([2]; first compound 1 µM) | relative viability ([3]; first compound 0.01 µM) | relative viability ([3]; first compound 0.03162 µM) | relative viability ([3]; first compound 0.1 µM) | relative viability ([3]; first compound 0.3162 µM) | relative viability ([3]; first compound 1 µM) | relative viability ([4]; first compound 0.01 µM) | relative viability ([4]; first compound 0.03162 µM) | relative viability ([4]; first compound 0.1 µM) | relative viability ([4]; first compound 0.3162 µM) | relative viability ([4]; first compound 1 µM)
1 | NCI-H2087 | 0.787 | 0.915 | 0.784 | 0.889 | 0.749 | 0.722 | 0.872 | 0.901 | 0.613 | 0.589 | 1.06 | 1.12 | 1.05 | 1.04 | 0.937 | 0.828 | 0.795 | 0.61 | 0.542 | 0.451
2 | NCI-H2228 | 0.408 | 0.516 | 0.39 | 0.47 | 0.402 | 0.42 | 0.579 | 0.758 | 0.882 | 0.547 | 0.732 | 1.18 | 0.783 | 0.755 | 0.741 | 0.549 | 0.433 | 0.42 | 0.404 | 0.339
3 | NCI-H727 | 0.925 | 1.02 | 0.633 | 0.885 | 0.689 | 1.26 | 1.29 | 1.23 | 1.08 | 1.34 | 0.429 | 0.438 | 0.435 | 0.378 | 0.322 | 0.363 | 0.287 | 0.271 | 0.272 | 0.264
4 | NCI-H650 | 0.68 | 0.727 | 0.675 | 0.538 | 0.675 | 0.454 | 0.565 | 0.557 | 0.415 | 0.303 | – | – | – | – | – | 0.445 | 0.459 | 0.434 | 0.434 | 0.456
5 | NCI-H520 | 0.874 | 0.795 | 0.78 | 0.782 | 0.601 | 0.678 | 0.925 | 0.693 | 0.746 | 0.754 | 1.05 | 1.12 | 1.2 | 1.19 | 1.17 | 0.21 | 0.221 | 0.151 | 0.152 | 0.155
6 | EBC-1 | 0.204 | 0.195 | 0.216 | 0.2 | 0.186 | – | – | – | – | – | 0.461 | 0.318 | 0.351 | 0.385 | 0.302 | – | – | – | – | –
7 | NCI-H661 | 0.973 | 0.955 | 1.02 | 0.904 | 0.915 | 0.763 | 0.84 | 0.744 | 0.786 | 0.759 | – | – | – | – | – | 0.973 | 0.809 | 0.885 | 0.782 | 0.83
8 | NCI-H1299 | 0.989 | 1.02 | 0.979 | 0.995 | 0.955 | – | – | – | – | – | 1.04 | 1.05 | 1.06 | 1.07 | 1.04 | – | – | – | – | –
9 | LK-2 | 0.248 | 0.215 | 0.254 | 0.21 | 0.192 | 0.215 | 0.314 | 0.269 | 0.218 | 0.309 | 1.04 | 1.03 | 1.02 | 0.809 | 0.773 | 0.316 | 0.293 | 0.269 | 0.312 | 0.27
10 | NCI-H1993 | 0.908 | 0.907 | 0.774 | 0.899 | 0.846 | 0.831 | 0.773 | 0.805 | 0.709 | 0.577 | 0.822 | 0.892 | 0.998 | 0.911 | 0.9 | 0.601 | 0.48 | 0.506 | 0.78 | 0.593
11 | NCI-H838 | 0.807 | 1.02 | 0.873 | 0.672 | 0.488 | 0.715 | 0.731 | 0.94 | 0.589 | 0.437 | 1.17 | 1.35 | 1.27 | 1.02 | 0.851 | 0.27 | 0.279 | 0.217 | 0.305 | 0.205
12 | SW 900 | – | – | – | – | – | 0.535 | 0.511 | 0.594 | 0.661 | 0.562 | – | – | – | – | – | 0.559 | 0.613 | 0.477 | 0.456 | 0.403
13 | LCLC-103H | 1.14 | 1.08 | 1.11 | 0.906 | 0.895 | 0.852 | 0.725 | 0.732 | 0.771 | 0.769 | – | – | – | – | – | 0.47 | 0.36 | 0.481 | 0.442 | 0.332
14 | NCI-H522 | – | – | – | – | – | 0.906 | 1.06 | 0.919 | 0.973 | 0.961 | – | – | – | – | – | 0.889 | 0.832 | 0.95 | 0.725 | 0.979
15 | IA-LM | 0.862 | 0.924 | 0.908 | 0.91 | 0.714 | 0.991 | 1.12 | 0.801 | 0.859 | 0.86 | 0.712 | 0.726 | 0.786 | 0.788 | 0.654 | – | – | – | – | –
16 | NCI-H1563 | 0.855 | 0.83 | 0.91 | 0.864 | 0.799 | – | – | – | – | – | – | – | – | – | – | 0.458 | 0.422 | 0.429 | 0.372 | 0.385
17 | HCC-44 | 0.876 | 0.893 | 0.798 | 0.788 | 0.749 | 1.1 | 1.06 | 1.13 | 1.14 | 1.1 | 0.977 | 1.15 | 0.951 | 0.905 | 0.756 | – | – | – | – | –
18 | NCI-H358 | 0.608 | 0.449 | 0.515 | 0.449 | 0.303 | 0.65 | 0.704 | 0.692 | 0.573 | 0.421 | – | – | – | – | – | 0.202 | 0.15 | 0.137 | 0.22 | 0.167
19 | ABC-1 | 1.12 | 1.21 | 1.09 | 1.15 | 1.17 | 1.02 | 0.948 | 1.28 | 1.11 | 1.27 | – | – | – | – | – | 0.574 | 0.633 | 0.559 | 0.54 | 0.587
20 | NCI-H2342 | – | – | – | – | – | 0.772 | 0.848 | 0.696 | 0.646 | 0.803 | – | – | – | – | – | 0.32 | 0.306 | 0.306 | 0.286 | 0.297
21 | NCI-H1792 | 0.936 | 1.01 | 0.971 | 0.938 | 0.961 | – | – | – | – | – | 0.629 | 0.536 | 0.578 | 0.642 | 0.581 | 0.803 | 0.841 | 0.623 | 0.581 | 0.55
